Assay results taken from US20070128179A1 (priority 2005, published 2007).
≈ marks a conversion by molar mass, not a printed value. Like-named read-outs stand apart in the source and are kept apart here. No end group written: not given here.

Tests used:
Enterobacter aerogenes = assay type: cell-based
Pseudomonas aeruginosa = assay type: cell-based
Staphylococcus aureus = assay type: cell-based
Proteus vulgaris = assay type: cell-based
Proteus mirabilis = assay type: cell-based
Escherichia coli = assay type: cell-based
23 tested strains = details: cited from earlier work
Burkholderia cepacia = details: 50 μg/mL; cited from earlier work
[1] = test system: THP-1 cells (Human macrophage)
[2] = test system: severe meloidosis patients; details: human, in vivo; cited from earlier work
[3] = test system: B. pseudomallei (strain TES); assay: microbe, parasite or virus in culture; assay type: cell-based, Burkholderia pseudomallei; details: 24 h; for MIC: Burkholderia pseudomallei, read-out: MIC (breaking point)
THP-1 cells = assay type: cell-based, Human
[4] = test system: B. pseudomallei (strain KHW); assay: microbe, parasite or virus in culture; details: Burkholderia pseudomallei, 24 h, read-out: MIC (breaking point)
[5] = test system: B. pseudomallei (strain KHW); details: 24 h

Penicillin
Size of inhibition zone, Ea (−) (Enterobacter aerogenes): 18.3 ± 0.85 mm | Size of inhibition zone, Pa (−) (Pseudomonas aeruginosa): 16.6 ± 0.89 mm | Size of inhibition zone, Sa (+) (Staphylococcus aureus): 17.4 ± 0.89 mm | Size of inhibition zone, Pv (−) (Proteus vulgaris): 16.7 ± 0.98 mm | Size of inhibition zone, Pm (−) (Proteus mirabilis): 27.8 ± 1.10 mm | Size of inhibition zone, Ec (−) (Escherichia coli): 15.2 ± 0.84 mm

[H]/N=C(/N)N[C@H]1[C@H](O)[C@@H](O)[C@H](O[C@@H]2O[C@@H](C)[C@](O)(C=O)[C@H]2O[C@@H]2O[C@@H](CO)[C@H](O)[C@@H](O)[C@@H]2NC)[C@@H](N/C(N)=N\[H])[C@@H]1O [Streptomycin]
Size of inhibition zone, Ea (−) (Enterobacter aerogenes): 15.7 ± 0.44 mm | Size of inhibition zone, Pa (−) (Pseudomonas aeruginosa): 16.5 ± 0.50 mm | Size of inhibition zone, Sa (+) (Staphylococcus aureus): 30.3 ± 0.77 mm | Size of inhibition zone, Pv (−) (Proteus vulgaris): 18.2 ± 0.83 mm | Size of inhibition zone, Pm (−) (Proteus mirabilis): 27.8 ± 1.09 mm | Size of inhibition zone, Ec (−) (Escherichia coli): 29.4 ± 0.89 mm

hBD-3 (GIINTLQKYYCRVRGGRCAVLSCLPKEEQIGKCSTRGRKCCRRKK; ends and bridges not checked; cysteine pairing not given here; UniProt P81534 23-67, looked up)
MBCs (23 tested strains): > 100 µg/mL | effect (Burkholderia cepacia): did not show any effect

Triton X-100
hemolytic activity (human red blood cells): 100% | cell death [1]: 90%

CC(C)(O/N=C(\C(=O)N[C@@H]1C(=O)N2C(C(=O)[O-])=C(C[n+]3ccccc3)CS[C@H]12)c1csc(N)n1)C(=O)O [Ceftazidime]
mortality [2]: 37% | optical density (560 nm) of bacterial growth, strain TES ([3]; 0.03125 mg/mL): 0.49 | percentage in parentheses (susceptibility), strain TES ([3]; 0.03125 mg/mL): (33%) | optical density (560 nm) of bacterial growth, strain TES ([3]; 0.0625 mg/mL): 0.35 | percentage in parentheses (susceptibility), strain TES ([3]; 0.0625 mg/mL): (47%) | optical density (560 nm) of bacterial growth, strain TES ([3]; 0.125 mg/mL): 0.09 | optical density (560 nm) of bacterial growth, strain TES ([3]; 0.25 mg/mL): 0.03 | percentage in parentheses (susceptibility), strain TES ([3]; 0.25 mg/mL): (86%) | optical density (560 nm) of bacterial growth, strain TES ([3]; 0.5 mg/mL): 0.01 | percentage in parentheses (susceptibility), strain TES ([3]; 0.5 mg/mL): (88%) | MIC [3]: 125 µg/mL (≈ 229 µM) | gene expression (THP-1 cells): majority of the genes were up regulated | MIC [4]: 125 µg/mL (≈ 229 µM) | optical density (560 nm) of bacterial growth, strain KHW ([5]; 0.03125 mg/mL): 0.44 | percentage in parentheses (susceptibility), strain KHW ([5]; 0.03125 mg/mL): (22%) | optical density (560 nm) of bacterial growth, strain KHW ([5]; 0.0625 mg/mL): 0.24 | percentage in parentheses (susceptibility), strain KHW ([5]; 0.0625 mg/mL): (24%) | optical density (560 nm) of bacterial growth, strain KHW ([5]; 0.125 mg/mL): 0.04 | percentage in parentheses (susceptibility), strain KHW ([5]; 0.125 mg/mL): (62%) | optical density (560 nm) of bacterial growth, strain KHW ([5]; 0.25 mg/mL): 0.05 | percentage in parentheses (susceptibility), strain KHW ([5]; 0.25 mg/mL): (61%) | optical density (560 nm) of bacterial growth, strain KHW ([5]; 0.5 mg/mL): 0.08 | percentage in parentheses (susceptibility), strain KHW ([5]; 0.5 mg/mL): (58%)

CC[C@H](C)[C@H](NC(=O)CN)C(=O)NCC(=O)N[C@@H](C)C(=O)N[C@H](C(=O)N[C@@H](CC(C)C)C(=O)N[C@@H](CCCCN)C(=O)N[C@H](C(=O)N[C@@H](CC(C)C)C(=O)N[C@H](C(=O)N[C@H](C(=O)NCC(=O)N[C@@H](CC(C)C)C(=O)N1CCC[C@H]1C(=O)N[C@@H](C)C(=O)N[C@@H](CC(C)C)C(=O)N[C@H](C(=O)N[C@@H](CO)C(=O)N[C@@H](Cc1c[nH]c2ccccc12)C(=O)N[C@H](C(=O)N[C@@H](CCCCN)C(=O)N[C@@H](CCCNC(=N)N)C(=O)N[C@@H](CCCCN)C(=O)N[C@@H](CCCNC(=N)N)C(=O)N[C@@H](CCC(N)=O)C(=O)N[C@@H](CCC(N)=O)C(N)=O)[C@@H](C)CC)[C@@H](C)CC)[C@@H](C)O)[C@@H](C)O)C(C)C)C(C)C [melittin]
MIC (breaking point) [5]: 250 µg/mL (≈ 87.8 µM)

O=C(N[C@H](CO)[C@H](O)c1ccc([N+](=O)[O-])cc1)C(Cl)Cl [Chloramphenicol]
Size of inhibition zone, Ea (−) (Enterobacter aerogenes): 27.8 ± 1.09 mm | mortality [2]: 74% | Size of inhibition zone, Pa (−) (Pseudomonas aeruginosa): 25 ± 0.70 mm | optical density (560 nm) of bacterial growth, strain TES ([3]; 0.03125 mg/mL): 0.37 | percentage in parentheses (susceptibility), strain TES ([3]; 0.03125 mg/mL): (38%) | optical density (560 nm) of bacterial growth, strain TES ([3]; 0.0625 mg/mL): 0.34 | percentage in parentheses (susceptibility), strain TES ([3]; 0.0625 mg/mL): (41%) | optical density (560 nm) of bacterial growth, strain TES ([3]; 0.125 mg/mL): 0.07 | optical density (560 nm) of bacterial growth, strain TES ([3]; 0.25 mg/mL): 0.04 | percentage in parentheses (susceptibility), strain TES ([3]; 0.25 mg/mL): (73%) | optical density (560 nm) of bacterial growth, strain TES ([3]; 0.5 mg/mL): 0.026 | percentage in parentheses (susceptibility), strain TES ([3]; 0.5 mg/mL): (74%) | MIC [3]: 125 µg/mL (≈ 387 µM) | MIC [4]: 125 µg/mL (≈ 387 µM) | Size of inhibition zone, Sa (+) (Staphylococcus aureus): 35.1 ± 1.26 mm | Size of inhibition zone, Pv (−) (Proteus vulgaris): 24.6 ± 0.86 mm | Size of inhibition zone, Pm (−) (Proteus mirabilis): 33 ± 2.34 mm | Size of inhibition zone, Ec (−) (Escherichia coli): 31.8 ± 1.64 mm | optical density (560 nm) of bacterial growth, strain KHW ([5]; 0.03125 mg/mL): 0.51 | percentage in parentheses (susceptibility), strain KHW ([5]; 0.03125 mg/mL): (1%) | optical density (560 nm) of bacterial growth, strain KHW ([5]; 0.0625 mg/mL): 0.42 | percentage in parentheses (susceptibility), strain KHW ([5]; 0.0625 mg/mL): (10%) | optical density (560 nm) of bacterial growth, strain KHW ([5]; 0.125 mg/mL): 0.07 | percentage in parentheses (susceptibility), strain KHW ([5]; 0.125 mg/mL): (60%) | optical density (560 nm) of bacterial growth, strain KHW ([5]; 0.25 mg/mL): 0.03 | percentage in parentheses (susceptibility), strain KHW ([5]; 0.25 mg/mL): (64%) | optical density (560 nm) of bacterial growth, strain KHW ([5]; 0.5 mg/mL): 0.01 | percentage in parentheses (susceptibility), strain KHW ([5]; 0.5 mg/mL): (68%)
